Experimental data published in ChEMBL document CHEMBL2375302, “Synthesis, antimicrobial, antiquorum-sensing, antitumor and cytotoxic activities of new series of fused [1,3,4]thiadiazoles” (Eur J Med Chem, 2013).
Values after ≈ are worked out from the molar mass of the structure shown.

Assays:
Candida albicans = assay: Antifungal activity against Candida albicans at 5 mg/mL after 48 hrs; assay type: functional; conditions: read-out: DIZ
Bacillus cereus = assay: Antibacterial activity against Bacillus cereus at 5 mg/mL after 24 hrs; assay type: functional; conditions: read-out: DIZ
[1] = (§1) Toxicity against brine shrimp larvae assessed as mortality after 24 hrs by binocular microscopic analysis; assay type: organism-based; conditions: artemia salina, in vivo
Artemia salina = assay: as §1; assay type: organism-based; conditions: in vivo, 24 h
Escherichia coli = assay: Antibacterial activity against Escherichia coli at 5 mg/mL after 24 hrs; assay type: functional; conditions: read-out: DIZ
[2] = system: Chromobacterium violaceum; assay: Antiquorum-sensing activity against Chromobacterium violaceum ATCC 12472 after 48 hrs; assay type: functional
[3] = Toxicity against brine shrimp larvae assessed as mortality at 500 ug/mL after 24 hrs by binocular microscopic analysis relative to control; assay type: organism-based; conditions: artemia salina, in vivo
[4] = Toxicity against brine shrimp larvae assessed as mortality at 10 ug/mL after 24 hrs by binocular microscopic analysis relative to control; assay type: organism-based; conditions: artemia salina, in vivo
Aspergillus flavus = assay: Antifungal activity against Aspergillus flavus 3372 at 5 mg/mL after 48 hrs; assay type: functional; conditions: Aspergillus flavus, 3372, 48 h; read-out: DIZ
[5] = Toxicity against brine shrimp larvae assessed as mortality at 100 ug/mL after 24 hrs by binocular microscopic analysis relative to control; assay type: organism-based; conditions: artemia salina, in vivo
Aspergillus fumigatus = assay: Antifungal activity against Aspergillus fumigatus Af293 at 5 mg/mL after 48 hrs; assay type: functional; conditions: Af293, 48 h, read-out: DIZ
Staphylococcus aureus = assay: Antibacterial activity against Staphylococcus aureus at 5 mg/mL after 24 hrs; assay type: functional; conditions: read-out: DIZ
[6] = Toxicity against brine shrimp larvae assessed as mortality at 1000 ug/mL after 24 hrs by binocular microscopic analysis relative to control; assay type: organism-based; conditions: artemia salina, in vivo

SMILES | zone of inhibition at 5000 µg/mL (Candida albicans) [mm] | zone of inhibition at 5000 µg/mL (Bacillus cereus) [mm] | LC50 at 24 h [1] [µg/mL] | LC90 (Artemia salina) [µg/mL] | zone of inhibition at 5000 µg/mL (Escherichia coli) [mm] | diameter of the inhibition zone (DIZ) [2] [mm] | mortality at 24 h, 500 ug/mL [3] [%] | mortality at 24 h, 10 ug/mL [4] [%] | zone of inhibition at 5000 µg/mL (Aspergillus flavus) [mm] | mortality at 24 h, 100 ug/mL [5] [%] | zone of inhibition at 5000 µg/mL (Aspergillus fumigatus) [mm] | zone of inhibition at 5000 µg/mL (Staphylococcus aureus) [mm] | mortality at 24 h, 1000 ug/mL [6] [%]
COc1ccc(/N=N/c2c(N)n3nc(S(N)(=O)=O)sc3nc2=O)cc1 | 6 | 3 | 404 (≈ 1060 µM) | 726.97 (≈ 1910 µM) | 5 | 11 | 93.3 | 73.3 | 5 | 86.6 | < 2 | 8 | 100
COc1ccc2c(c1)CCC1=C2N=C2SC(S(N)(=O)=O)=NN2C1c1ccc(Br)cc1 (centres undefined) | 14 | < 2 | – | – | < 2 | <2 | – | – | < 2 | – | 6 | < 2 | –
Nc1c(/N=N/c2ccc(Br)cc2)c(=O)nc2sc(S(N)(=O)=O)nn12 | 6 | 5 | 460 (≈ 1070 µM) | 827.2 (≈ 1920 µM) | < 2 | 12 | 80 | 46.6 | < 2 | 66.6 | 4 | 9 | 90
COc1ccc(/C=C2\C(=O)N=C3SC(S(N)(=O)=O)=NN32)cc1OC | 4 | 4 | 425 (≈ 1150 µM) | 765.3 (≈ 2080 µM) | < 2 | <2 | 86.6 | 63.3 | 7 | 76.6 | 16 | 4 | 96.6
CN(C)c1ccc(C2C(C#N)C(=O)N=C3SC(S(N)(=O)=O)=NN32)cc1 (centres undefined) | 32 | 6 | 400 (≈ 1060 µM) | 719.42 (≈ 1900 µM) | < 2 | 6 | 96.6 | 70 | < 2 | 86.6 | 8 | 7 | 100
NS(=O)(=O)C1=NN2CCC(=O)N=C2S1 | 12 | 4 | 399 (≈ 1700 µM) | 717.7 (≈ 3060 µM) | 11 | <2 | 96.6 | 70 | 10 | 90 | 8 | 16 | 100
Nc1c(/N=N/c2ccccc2)c(=O)nc2sc(S(N)(=O)=O)nn12 | 4 | 7 | 419 (≈ 1190 µM) | 755.03 (≈ 2150 µM) | 10 | <2 | 90 | 66.6 | < 2 | 80 | < 2 | 7 | 96.6
CCOC(=O)C1C(=O)N=C2SC(S(N)(=O)=O)=NN2C1c1ccc(OC)c(OC)c1 (centres undefined) | 4 | 7 | 442 (≈ 1000 µM) | 796.46 (≈ 1800 µM) | < 2 | 8 | 83.3 | 50 | < 2 | 70 | < 2 | 8 | 93.3
OC(Cn1cncn1)(Cn1cncn1)c1ccc(F)cc1F [FLUCONAZOLE] | 22 | – | – | – | – | – | – | – | < 2 | – | < 2 | – | –
NS(=O)(=O)C1=NN2C(=O)c3ccccc3NC(c3ccsc3)/N=C\2S1 (centres undefined) | < 2 | < 2 | 477 (≈ 1210 µM) | 858.77 (≈ 2180 µM) | < 2 | 6 | 76.6 | 46.6 | < 2 | 66.6 | < 2 | < 2 | 86.6
NS(=O)(=O)C1=NN2C(=NC(=O)/C2=C\c2ccc(Br)cc2)S1 | 8 | 2 | 551 (≈ 1420 µM) | 992.28 (≈ 2560 µM) | < 2 | <2 | 60 | 23.3 | < 2 | 40 | < 2 | 2 | 80
CCOC(=O)C1C(=O)N=C2SC(S(N)(=O)=O)=NN2C1c1ccc(Cl)cc1 (centres undefined) | < 2 | 4 | 508 (≈ 1220 µM) | 914.63 (≈ 2190 µM) | < 2 | 11 | 70 | 36.6 | < 2 | 53.3 | < 2 | 3 | 83.3
COc1ccc2c(c1)CCC1=C2N=C2SC(S(N)(=O)=O)=NN2C1c1ccc(OC)c(OC)c1 (centres undefined) | – | – | 455 (≈ 936 µM) | 819.67 (≈ 1680 µM) | – | – | 76.6 | 46.6 | – | 63.3 | – | – | 93.3
CC1(C)S[C@@H]2[C@H](NC(=O)[C@H](N)c3ccccc3)C(=O)N2[C@H]1C(=O)O [AMPICILLIN] | – | 3.5 | – | – | 23 | – | – | – | – | – | – | 14 | –
O=c1[nH]cc(F)c(=O)[nH]1 [FLUOROURACIL] | – | – | 409 (≈ 3150 µM) | 736.49 (≈ 5660 µM) | – | – | 90 | 63.3 | – | 83.3 | – | – | 100
N=c1cc(N)n2nc(S(N)(=O)=O)sc2n1 | < 2 | < 2 | – | – | < 2 | <2 | – | – | < 2 | – | < 2 | < 2 | –
NS(=O)(=O)C1=NN2CC(=O)N=C2S1 | 5 | < 2 | – | – | < 2 | <2 | – | – | < 2 | – | < 2 | < 2 | –
